{
  "source": "patent US11813244B2",
  "about": "“Agent for eliminating senescent cells” (NIIGATA UNIVERSITY, priority 2016, dated 2023)",
  "key": {"[1]": {"system": "human umbilical cord vein derived vascular endothelial cells (HUVECs)", "assay": "Apoptosis induction in young and aged HUVECs (AnnexinV/PI/Hoechst 33258, FACS analysis)", "format": "cell-based", "details": "48 hours, relative to Con, 2DG 1 mM, 3HB 20 mM, AIC 200 μM", "description": "(§1) Specifically, human umbilical cord vein derived vascular endothelial cells (HUVECs, Lonza) were cultured in a prescribed culture medium (EBM-2/EGM-2, Lonza). Less than 10 passages were defined as young and 15 passages or more were defined as aged. For young or aged HUVEC, 2DG, 3HB, and AIC were added to the culture solutions at the concentrations of 1 mM, 20 mM, and 200 μM, respectively, and the cells were harvested after 48 hours. The collected cells were evaluated for viability by fluorescence/absorbance measurements using ApoTox-Glo™ Triplex Assay kit (Promega). Dead cells were stained using AnnexinV (Becton & Dickinson (BD)), PI (Sigma-Aldrich), and Hoechst 33258 (Invitrogen), and the percentage of apoptosis-induced cells was quantified by FACS analysis."}, "[2]": {"system": "human umbilical cord vein derived vascular endothelial cells (HUVECs)", "assay": "Cell viability of young and aged HUVECs (ApoTox-Glo Triplex Assay)", "format": "cell-based", "details": "48 hours, 2DG 1 mM, 3HB 20 mM, AIC 200 μM; for selectivity of the effects for aged versus young cells: aged (15 passages or more) vs young (less than 10 passages) HUVECs, viability and apoptosis; for cell viability: young and aged HUVECs, relative to Con", "description": "as §1"}, "visceral adipose tissue": {"system": "visceral adipose tissue", "assay": "Adipose inflammation and oxidative stress in adipose tissue of obesity model mice (HE, DHE, F4/80 staining, CCL2 and TNFα RT-PCR)", "format": "in vivo, mice (C57BL/6NCr)", "details": "visceral fat", "description": "(§2) Four-week-old wild-type mice (C57BL/6NCr) were fed with high fat diets for 8 weeks to prepare diet-induced obesity model mice. Then, canagliflozin, an SGLT2 inhibitor, was administered orally to the prepared obesity model mice by mixing with the diet at the concentration of 0.03% w/w (hereinafter referred to as “high fat diet+SGLT2i group”).\nSpecifically, a portion of the visceral fat collected in Experimental Example 4 was immersed and fixed with 10% Mildform (Wako) for at least 24 hours. The sample was dehydrated and embedded in paraffin, and sliced into 5-μm thick. The slices were stuck on slides and subjected to hematoxylin-eosin (HE) staining, dihydroethidium (DHE) staining, or immunofluorescent staining with F4/80 antibody. The stained slices were imaged using Biorevo (Keyence Co.), or where necessary, using confocal microscopy. For the HE staining, the images were photographed at 400× magnification, and the mean number of the crown like structures per one 40× field of view was counted as well. For the DHE staining, the percentage (%) of a red color value equal to or greater than a certain value relative to a randomly photographed 400× image per one field of view was measured using ImageJ. For the Immunofluorescent staining with F4/80 antibody, percentage (%) of F4/80 positive cells per nucleus in one field of view was measured. In addition, mRNAs of CCL2 and TNFα were quantified by quantitative RT-PCR method according to the method described in Experimental Example 4."}, "[3]": {"system": "p21 (Cdkn1a) and p16 (Cdkn2a) mRNA", "assay": "Quantitative RT-PCR of senescence markers p21 (Cdkn1a) and p16 (Cdkn2a) in visceral adipose tissue of obesity model mice", "format": "in vivo, mice (C57BL/6NCr)", "details": "canagliflozin 0.03% w/w in diet, 3 days and 1 week, relative to Actb", "description": "as §2\n(§3) Specifically, RNA was extracted with RNA-Bee™ (Tel-Test) from a portion of the visceral adipose tissue (epididymal adipose tissue) collected from the mice of each group 3 days and 1 week after starting administration of canagliflozin. The collected RNA was quantified by Nanodrop (Thermo), and cDNA was then prepared from 1 μg of the RNA using QuantiTect Reverse Transcription Kit (Quiagen). This cDNA was used to quantify the relative expression of mRNAs of p21 and p16 using Actb as the housekeeping gene by quantitative RT-PCR method using Light Cycler 480 (Roche), and TaqMan Universal Probe Library and the Light Cycler Master (Roche). The primers for each RNA were designed using the Probe finder on the Roche website."}, "[4]": {"assay": "Metabolome analysis of blood and various tissues of mice after short-term administration of the SGLT2 inhibitor", "format": "in vivo", "source_text": "It is known that SGLT2 inhibition accelerates fatty acid oxidation and suppresses glycolysis, and that acceleration of glycolysis is observed in senescent cells. Then, whether 3-hydroxybutyrate (hereinafter referred to as “3HB”), AICAR (hereinafter referred to as “AIC”), and 2-deoxyglucose (hereinafter referred to as “2DG”) that has an inhibitory effect on glycolysis have effects to induce apoptosis of senescent cells were examined."}, "[5]": {"system": "senescent cells in the visceral adipose tissues", "assay": "Senescence-associated acidic β-galactosidase staining of visceral adipose tissue of diet-induced obesity model mice", "format": "in vivo, mice (C57BL/6NCr)", "details": "canagliflozin 0.03% w/w in diet, one week", "description": "as §2\nFor comparison, four-week-old wild-type mice (C57BL/6NCr) fed with normal diets for 8 weeks (hereinafter referred as “normal diet group”) and obesity model mice prepared in the same manner as described above with the exception of not administering canagliflozin (hereinafter referred to as “high fat diet group”) were prepared.\nThe visceral adipose tissues (epididymal adipose tissues) were collected from the mice of each group one week after starting administration of canagliflozin in Experimental Example 1.\n(§4) Then, the senescent cells in the visceral adipose tissues collected from the mice of each group were detected according to the conventional method (Dimri, G. P. et al., Proc. Natl. Acad. Sci. U.S.A., 92(20), 9363-9367, 1995). Specifically, each of the visceral adipose tissues was stained with senescence-associated acidic β-galactosidase and the senescent cells were detected. The senescent cells were stained blue by this staining."}, "[6]": {"system": "p16 and p21 mRNA in heart, kidney, skeletal muscle (quadriceps), and brown adipose tissue", "assay": "Quantitative RT-PCR of p16 and p21 in organs other than visceral adipose tissue of obesity model mice", "format": "in vivo, mice (C57BL/6NCr)", "details": "SGLT2 inhibitor administration for 7 days", "description": "as §2, §3\nSpecifically, mRNA expression levels of p16 and p21 in heart, kidney, skeletal muscle (quadriceps), and brown adipose tissue, which were collected from the same mice when the visceral adipose tissue was collected in Experimental Example 2, were quantified using the same methods described in Experimental Example 4."}, "[7]": {"system": "senescent cells in blood vessels", "assay": "Senescence-associated β-galactosidase staining of blood vessels of atherosclerotic model mice", "format": "in vivo, ApoE-deficient (ApoE−/−) mice", "details": "ApoE−/− mice on high fat diet 12 weeks, canagliflozin 0.03% w/w in diet, 2 weeks, vs HFD group", "source_text": "as §4\nFour-week-old ApoE-deficient (ApoE^−/−) mice were fed with high fat diets for 12 weeks, followed by oral administration of canagliflozin, an SGLT2 inhibitor, mixed in the diet at the concentration of 0.03% w/w (hereinafter referred to as “HFD+SGLT2i group”). For comparison, the same mice as described above with the exception of not administering canagliflozin (hereinafter referred to as “HFD group”) were prepared. The blood vessels (from the aorta base to the descending aorta on the diaphragm) were collected from the mice of each group 2 weeks after starting administration of canagliflozin. Subsequently, the senescent cells in blood vessels collected from the mice of each group were detected according to the method described in Experimental Example 2. The stainability was measured at a part ranging from the ascending aorta to the branch of the arch left subclavian artery."}, "[8]": {"system": "Hutchinson-Gilford progeria model mice (Zmpste24-deficient mice)", "assay": "General condition of Hutchinson-Gilford progeria model mice", "format": "in vivo", "details": "canagliflozin 0.03% w/w in diet, 3 to 4 weeks, KO+SGLT2i vs KO", "source_text": "Canagliflozin, an SGLT2 inhibitor, mixed in a diet at the concentration of 0.03% w/w was orally administered to 13-week-old Hutchinson-Gilford progeria model mice (Zmpste24-deficient mice), and the general condition of the mice was observed."}, "p53 protein": {"system": "p53 protein", "assay": "Western blotting of p53 protein in visceral adipose tissue of obesity model mice", "format": "in vivo, mice (C57BL/6NCr)", "details": "canagliflozin 0.03% w/w in diet, one week", "description": "as §2\nSpecifically, expression level of p53 protein was measured by Western blotting using a portion of the visceral adipose tissues collected in Experimental Example 2. Type 1C12 (CST) was used as the anti-p53 antibody. Anti-β-actin antibody (type 13E5, CST) was used as the antibody to detect β-actin protein, which is the loading control."}, "[9]": {"details": "SGLT2 inhibitor administration for 3 days and 7 days"}, "[10]": {"details": "SGLT2 inhibitor administration for 7 days"}},
  "note": "Entries after “also recorded” stand apart in the source; their conditions may differ.",
  "data": [
    {"molecule": "CC(O)CC(=O)O", "note": "(stereo not shown) [3HB, 3-hydroxybutyrate]", "values": [
      {"measurement": "apoptosis induction (percentage of apoptotic cells)", "setting": "[1]", "value": "increase the apoptosis induction"},
      {"measurement": "selectivity of the effects for aged versus young cells", "setting": "[2]", "value": "in an aged cell-selective manner"},
      {"measurement": "cell viability", "setting": "[2]", "value": "decrease of the cell viability"}
    ]},
    {"molecule": "O=CC[C@@H](O)[C@H](O)[C@H](O)CO", "note": "[2DG, 2-deoxyglucose]", "values": [
      {"measurement": "apoptosis induction (percentage of apoptotic cells)", "setting": "[1]", "value": "increase the apoptosis induction"},
      {"measurement": "selectivity of the effects for aged versus young cells", "setting": "[2]", "value": "in an aged cell-selective manner"},
      {"measurement": "cell viability", "setting": "[2]", "value": "decrease of the cell viability"}
    ]},
    {"molecule": "Cc1ccc([C@@H]2O[C@H](CO)[C@@H](O)[C@H](O)[C@H]2O)cc1Cc1ccc(-c2ccc(F)cc2)s1", "note": "[canagliflozin, (1S)-1,5-Anhydro-1-C(-3{[5-(4-fluorophenyl)thiophen-2-yl]methyl}-4-methylphenyl)-D-glucitol]", "values": [
      {"measurement": "mRNA expression of CCL2", "setting": "visceral adipose tissue; [9]", "value": "tended to decrease"},
      {"measurement": "mRNA expression of TNFα", "setting": "visceral adipose tissue; [9]", "value": "tended to decrease"},
      {"measurement": "macrophage infiltration into adipose tissue (immunofluorescent staining with F4/80)", "setting": "visceral adipose tissue; [9]", "value": "macrophage infiltration into adipose tissue remained"},
      {"measurement": "infiltration of macrophages and CLS structures (HE staining, number of CLS)", "setting": "visceral adipose tissue; [10]", "value": "significantly decreased"},
      {"measurement": "oxidative stress (DHE staining, DHE positive area)", "setting": "visceral adipose tissue; [10]", "value": "significantly suppressed"},
      {"measurement": "p16 mRNA levels in visceral adipose tissue", "setting": "[3]", "value": "a similar trend was observed for p16"},
      {"measurement": "p21 mRNA levels in visceral adipose tissue", "setting": "[3]", "value": "significantly suppressed the increase of p21 mRNA levels"},
      {"measurement": "AICAR in blood", "setting": "[4]", "value": "significant increase of AICAR"},
      {"measurement": "ketone body concentration in blood and each tissue", "setting": "[4]", "value": "increase of ketone body concentration in blood and each tissue"},
      {"measurement": "inflammation at the visceral fat", "setting": "[5]; high fat diet+SGLT2i group mice", "value": "alleviation of inflammation at the visceral fat was also observed"},
      {"measurement": "senescent cells in the visceral adipose tissue (senescence-associated acidic β-galactosidase staining)", "setting": "[5]; obesity model mice, oral, vs high fat diet group", "value": "significantly decreased the senescent cells in the visceral adipose tissue"},
      {"measurement": "mRNA levels of p16 in the brown adipose tissue", "setting": "[6]", "value": "tended to decrease"},
      {"measurement": "mRNA levels of p16 in the kidney", "setting": "[6]", "value": "tended to decrease"},
      {"measurement": "mRNA levels of p21 in the heart", "setting": "[6]", "value": "tended to decrease"},
      {"measurement": "mRNA levels of p21 in the kidney", "setting": "[6]", "value": "tended to decrease"},
      {"measurement": "mRNA levels of p21 in the skeletal muscle", "setting": "[6]", "value": "tended to decrease"},
      {"measurement": "senescent cells in blood vessels (senescence-related β-galactosidase stainability)", "setting": "[7]", "value": "decreased the senescent cells stained blue"},
      {"measurement": "deterioration of hair consistency and alopecia", "setting": "[8]", "value": "reduced"},
      {"measurement": "expression level of p53 in the visceral adipose tissue (Western blotting)", "setting": "p53 protein", "value": "significantly lowered"}
    ]},
    {"molecule": "NC(=O)c1ncn([C@@H]2O[C@H](CO)[C@@H](O)[C@H]2O)c1N", "note": "[AIC, 5-Aminoimidazole-4-carboxamide-1-β-D-ribofuranoside]", "values": [
      {"measurement": "apoptosis induction (percentage of apoptotic cells)", "setting": "[1]", "value": "increased apoptosis induction"},
      {"measurement": "selectivity of the effects for aged versus young cells", "setting": "[2]", "value": "not in an aged cell-selective manner; also recorded: more potent effects in the young cells"},
      {"measurement": "cell viability", "setting": "[2]", "value": "decreased cell viability"}
    ]}
  ]
}
